Bridges are numbered along the chain shown (N, C = ends).
Legend:
[1] = test system: interferon type I signaling; assay: ISRE response, HT1080 ISRE mCherry reporter cells stimulated with Poly I:C; type: cell-based; details: pretreatment with 0.3 μM for 48 h, FIG. 1A, 1C
Protocol: (§1) HT1080 cells transfected with mCherry reporter under an ISRE (Interferon-Sensitive Response Element) promoter and HCT116 with Luc reporter under ISRE promoter were used. Raw 264.7 (undifferentiated murine macrophages) cell line was also used. The cells were cultured in appropriate media: Dulbecco's Modified Eagle Medium (DMEM) (Cat #41965-039, Gibco) with 4.5 g/l glucose and L-glutamine augmented with 10% FBS (Gibco, Grand Island, NY), 100 U/ml penicillin and 100 μg/ml streptomycin in a humidified atmosphere at 37° C. with 5% CO2.
HT1080 ISRE mCherry cells were plated in 6-well plates at 2×10^4 cells/well. […] Following the 48 hour incubation, 25 μg/well of Polyinosinic:polycytidylic acid (Poly I:C)—a chemical compound structurally similar to double-stranded RNA and acting via Toll Like Receptor-3 molecular pathway activation, was added for an additional 16 h incubation. After this second incubation, cells were subjected to fluorescent imaging followed by washing with 1×PBX, trypsinization and resuspension with 300 μl of 1×PBS. 200 μl of cell suspension were further loaded into 96-well black clear bottom plates. Strength of mCherry fluorescence signal was detected by an ELISA reader with multiple reads per well at 574Ex/610Em.

[2] = test system: crown-like structures (macrophages) in adipose tissue; assay: Crown-like structures in adipose tissue (H&E histology) of submissive mice; type: in vivo; details: sub-chronic 10 and 30 mg/kg, H&E staining, FIG. 2C
Protocol: The adipose tissue of submissive mice treated with 10 and 30 mg/kg of ALOS4 were excised and fixed with 4% formalin overnight at 4° C., followed by dehydration and paraffin embedding (Cat #BN0763, Barnaor). Serial sections of 5 μm thickness were cut and placed on charged glass slides (LE-14035838925, Leica, Germany) and incubated for 1 h at 60° C. At least three slides from each adipose tissue sample with 300 μm distance between sections were collected for histological staining. Prior to Hematoxylin and Eosin (H&E), all sections were subjected to de-paraffinized and hydrated by decreasing concentrations of ethanol in deionized water.
De-paraffinized and hydrated slides were immersed in Meyer's Hematoxylin solution (Cat #HX68597049, MERCK) for 5 min, washed for 5 min with tap water, and then immersed in Eosin solution (Cat #HX6109259, MERCK) for 2 min, rehydrated and mounted with Entalain.
Macrophages were evaluated by a scoring system using light microscopy. A score of 1 is characterized by the absence of crown like structures in framed field, 10-20 crowns characterize the score of 2, a score of 3—20-30 crown like structures, a score of 4—30-40 crowns and a score of 5—abundant crowns (40-50).

[3] = test system: interferon type I signaling; assay: ISRE response, HCT116 ISRE Luc reporter cells stimulated with Poly I:C; type: cell-based; details: pretreatment with 0.3 μM for 48 h, FIG. 1B
Protocol: as §1
HCT116 ISRE Luc cells were plated in 96-well plates at 3×10^3 cells/well. The next day DMEM was replaced with DMEM containing 0.3 μM of ALOS4 or saline as control with/without PEI—transfection reagent, and cells continued to grow for 48 h. Following the 48 h incubation 1 μg/ml of Poly I:C was added for an additional 16 h incubation. After this second incubation the media was removed, 30 μl of Bright-Glo™ Luciferase Assay System (Promega, Cat #E2610) was added. Plate was read with plate reader on Luminescent parameters.

serum cytokines = assay: Serum cytokine array after sub-chronic treatment of submissive mice; type: in vivo
Protocol: Submissive mice are derivates from “Sabra” strain were maintained under a 12 h light/12 h dark cycle with Purina rodent chow (Envigo, Israel) and water provided ad libitum. The animals were housed five per cage. All procedures with animals were performed after review and approval by the Institutional Animal Care and Use Committee of Ariel University.
Blood samples of submissive mice treated with control, as well as 10 and 30 mg/kg of ALOS4 were collected by terminal bleeding from the heart and centrifuged at 14,000 rpm for 20 min. Serum was removed to a new tube and stored at −80° C. for future use. Mouse XL Cytokine Array Kit (Cat #ARYO28, R&D) was used to detect the cytokines in the serum of submissive mice according to the manufacturer's instructions. Serum from treatment groups (saline, 10 and 30 mg/kg ALOS4) was added to each membrane. Streptavidin-HRP and Chemi Reagent Mix were used to detect the antibodies bound to the membrane. The membranes were then exposed (Image Quant LAS4000 mini; GE Healthcare, Milwaukee, WI, USA) and analyzed using ImageQuant TL software (GE Healthcare).

Raw267.4 cells = assay: Nitric oxide level assay, LPS-induced macrophage differentiation; type: cell-based, mouse; details: FIG. 2D
Protocol: Ability of ALOS4 to affect macrophage differentiation to pro- and anti-inflammatory macrophages was evaluated on mouse monocyte macrophages (Raw267.4) using the nitric oxide level assay. Cells were plated at a density of 1×10^5 cells/ml in 12 well plates for 12 h, followed by treatment with LPS (200 ng/ml) and ALOS4 (0.3 and 30 μM). Nitric oxide production of monocyte differentiation to pro-inflammatory M1 was detected with Griess reaction kit (Cat #G2930, Promega) according to the protocol. The absorbance was read at 540 nm with ELISA plate reader (Tecan infinite M200pro, Switzerland) and nitric oxide concentration was calculated using the Nitrite Standard Reference Curve.

[4] = 10 and 30 mg/kg i.v., every second day within 10 days, FIG. 2A

H-cycl (Cys-Ser-Ser-Ala-Gly-Ser-Leu-Phe-Cys)-OH (H-CSSAGSLFC-OH; disulfide 1-9 (inferred)) [ALOS4]
ability of cells to induce interferon type I signaling in response to Poly I:C (mCherry fluorescence) [1]: suppressed
frequency of crown-like structures in fat pads [2]: a decrease in frequency was observed
ability of cells to induce interferon type I signaling in response to Poly I:C (luciferase) [3]: suppressed
IL-1α/IL-1F1 in blood (serum cytokines; [4]): did not change
total interleukins in blood as compared to the control group (serum cytokines; [4]): downregulation
pro-inflammatory markers (Jak-STAT signaling pathway) in serum (serum cytokines; sub-chronic 10 and 30 mg/kg, FIG. 2B): strong tendency toward down-regulation
nitric oxide (indicator of differentiation to pro-inflammatory macrophages) (Raw267.4 cells; LPS-induced, one-way ANOVA p<0.01 and p<0.001): significant dose-dependent decrease
differentiation of macrophages to pro-inflammatory M1 (Raw267.4 cells; Raw267.4 cells, LPS 200 ng/ml, 0.3 and 30 μM for 24 hours): inhibited differentiation of the macrophages to pro-inflammatory M1 in a dose dependent manner

Reference: patent US12115207B2, “Treatment of inflammation” (Ariel Scientific Innovations Ltd., priority 2019, dated 2024)
